One block for each molecule: values may come before it.
Test: solvent given as SMILES

absorption maximum (in C1CCCCC1): 291 nm | absorption maximum (in CC#N): 290 nm | absorption maximum (in CO): 290 nm | absorption maximum (in O): 289 nm
Structure (SMILES): CCOC(=O)COc1ccc(C(c2c(C)[nH]c3ccccc23)c2c(C)[nH]c3ccccc23)cc1

absorption maximum (in CC1CCCCC1): 438 nm
Structure (SMILES): CC(C)(C)c1ccc2cc3c4cccc5cccc(c6cc(C(C)(C)C)cc(c2c1)c63)c54

absorption maximum (in ClC(Cl)Cl): 424 nm
Structure (SMILES): CCCCN1c2ccccc2Sc2cc(/C=C\c3cc(=O)oc4cc(C)ccc34)ccc21

absorption maximum (in CCO): 366 nm
Structure (SMILES): Nc1cc2oc3cc(O)c(F)cc3c(=O)c2cc1F

absorption maximum (in C1CCOC1): 598 nm | absorption maximum (in CS(C)=O): 604 nm | absorption maximum (in ClCCl): 599 nm
Structure (SMILES): COc1cc(OC)cc(C2=C3C(C)=C(I)C(C)=[N+]3[B-](F)(F)n3c(/C=C/c4ccsc4)c(I)c(C)c32)c1

absorption maximum (in CCO): 373 nm
Structure (SMILES): O=c1c2cc(F)c(O)cc2oc2cc(N3CCCCC3)c(F)cc12

absorption maximum (in CC#N): 359 nm | absorption maximum (in CC(C)O): 360 nm | absorption maximum (in CCO): 359 nm | absorption maximum (in CO): 361 nm | absorption maximum (in ClC(Cl)Cl): 362 nm | absorption maximum (in ClCCl): 362 nm
Structure (SMILES): Cc1cccc2cc3c(=O)n(C)c(=O)n(C)c3nc12

absorption maximum (in ClCCl): 477 nm
Structure (SMILES): CCCCCCCCCCCCN1C(=O)c2c(c3ccc4cc(-c5ccc(N(C)C)cc5)c(OC)cc4c3c3c2ccc2cc(-c4ccc(N(C)C)cc4)c(OC)cc23)C1=O

absorption maximum (in C1CCCCC1): 592 nm | absorption maximum (in CCOC(C)=O): 587 nm | absorption maximum (in CO): 585 nm
Structure (SMILES): CCCCCCOc1ccc2oc3c(c2c1)=CC1=C(c2ccccc2C)c2cc4c5cc(OCCCCCC)ccc5oc4n2[B-](F)(F)[N+]=31

absorption maximum (in ClCCl): 390 nm
Structure (SMILES): COc1cc(/C=C/c2nc(N3CCOCC3)c3c([n+]2[O-])CCCC3)cc(OC)c1OC

absorption maximum (in C1CCCCC1): 388 nm
Structure (SMILES): COc1ccc2c3c(c4ccc(OC)cc4c2c1)C(C)(C)c1ccccc1-3

absorption maximum (in CO): 448 nm
Structure (SMILES): O=C1C=C(Nc2cc(F)cc(F)c2)C(=O)c2ccccc21

absorption maximum (in ClCCl): 390 nm
Structure (SMILES): Cc1c(C(=O)c2c(F)cc(F)cc2F)c2ccc3cccc4c5cccc6ccc1c(c65)c2c34

absorption maximum (in ClCCl): 646 nm
Structure (SMILES): CCN(CC)c1ccc2c(-c3ccccc3C(=O)O)c3c([o+]c2c1)/C(=C/c1ccc2c(c1)c1ccccc1n2CC)CCC3

absorption maximum (in C1CCOC1): 349 nm
Structure (SMILES): Cc1cc(C2=C(c3cc(C)sc3C)S(=O)(=O)c3ccccc32)c(C)s1

absorption maximum (in CCCCCC): 536 nm
Structure (SMILES): CC(C)[Si](C#Cc1c2ccccc2c(C#C[Si](C(C)C)(C(C)C)C(C)C)c2nc3c(ccc4cc5ccccc5cc43)nc12)(C(C)C)C(C)C

absorption maximum (in CC#N): 353 nm | absorption maximum (in CC(C)O): 353 nm | absorption maximum (in CCO): 353 nm | absorption maximum (in CO): 352 nm | absorption maximum (in ClC(Cl)Cl): 355 nm | absorption maximum (in ClCCl): 355 nm
Structure (SMILES): Cc1ccc2cc3c(=O)n(C)c(=O)n(C)c3nc2c1

absorption maximum (in CCOC(C)=O): 416 nm
Structure (SMILES): O=Cc1cc2c(cc3ccc4cccc5ccc2c3c45)[nH]1

absorption maximum (in CC#N): 531 nm | absorption maximum (in CCCCCC): 536 nm | absorption maximum (in CCOC(C)=O): 534 nm | absorption maximum (in CO): 536 nm | absorption maximum (in ClCCl): 537 nm
Structure (SMILES): CCCSc1ccc2n1[B-](F)(F)[N+]1=CC=CC1=C2c1ccccc1

absorption maximum (in CC#N): 397 nm
Structure (SMILES): COc1cccc(-c2nc3c([nH]2)C2=CC(=O)S[C@]2(C)[C@@]2(C)SC(=O)C=C32)c1OC

absorption maximum (in CC#N): 394 nm | absorption maximum (in ClCCl): 400 nm
Structure (SMILES): Cn1c(=O)cc(C(=O)c2ccccc2)c2sc(-c3ccc(OC(F)(F)F)cc3)cc21

absorption maximum (in CN(C)C=O): 645 nm | absorption maximum (in ClC(Cl)Cl): 643 nm
Structure (SMILES): CC(C)(C)c1cc(C(C)(C)C)c2oc3c(c2c1)C=CN1C(=O)C2=C4c5oc6c(C(C)(C)C)cc(C(C)(C)C)cc6c5C=CN4C(=O)C2=C31

absorption maximum (in CO): 418 nm
Structure (SMILES): CCCCCCc1cc(B(c2c(C)cc(C)cc2C)c2c(C)cc(C)cc2C)c(-c2sc(CCCCCC)cc2P(=O)(c2ccccc2)c2ccccc2)s1

absorption maximum (in ClC(Cl)Cl): 626 nm
Structure (SMILES): F[B-]1(F)n2c(cc(Br)c2Br)C(c2ccccc2)=C2C=C(Br)C(c3ccc[nH]3)=[N+]21

absorption maximum (in CO): 528 nm
Structure (SMILES): CCOC(=O)CCCCCn1c2ccccc2c(=O)c2cc3c(cc21)c(=O)c1ccccc1n3CC

absorption maximum (in CC#N): 683 nm
Structure (SMILES): CN1/C(=C\C=C\C2=C3C=CC(c4ccccc4)=[N+]3[B-](F)(F)n3c2ccc3-c2ccccc2)Sc2ccccc21

absorption maximum (in CCO): 304 nm
Structure (SMILES): CCOC(=O)c1cc(C(=O)OCC)c2cc([N+](=O)[O-])ccc2n1

absorption maximum (in ClC(Cl)Cl): 393 nm
Structure (SMILES): COc1ccc(N(c2ccc(OC)cc2)c2sc(-c3ccc(Cl)cc3)nc2-c2ccccc2)cc1

Further lines, the molecule ahead of its results:

Structure (SMILES): CCCCCCC(CCCCCC)N1C(=O)c2cccc3c(-c4ccc([Si](C)(C)C)cc4)ccc(c23)C1=O
absorption maximum (in CCCCCC): 343.4 nm | absorption maximum (in CCCCCCCCCCCCCC): 344.4 nm | absorption maximum (in CCCCCCCCCCCO): 355 nm | absorption maximum (in CCCCO): 357.6 nm | absorption maximum (in CN(C)C=O): 356 nm | absorption maximum (in Cc1ccccc1): 353.4 nm | absorption maximum (in ClC(Cl)Cl): 356 nm

Structure (SMILES): O=Cc1ccc(C#CC(C#Cc2ccc(C=O)o2)=Cc2ccc(C=C(C#Cc3ccc(C=O)o3)C#Cc3ccc(C=O)o3)cc2)o1
absorption maximum (in ClC(Cl)Cl): 450 nm

Structure (SMILES): COc1ccc(-c2cc(-c3ccc(C)cc3)nc3c(C#N)c(N4CCCC4)nc(N)c23)cc1
absorption maximum (in CC#N): 418 nm | absorption maximum (in CC(C)=O): 420 nm | absorption maximum (in CC(C)O): 414 nm | absorption maximum (in CO): 414 nm | absorption maximum (in ClC(Cl)Cl): 418 nm | absorption maximum (in ClCCl): 422 nm | absorption maximum (in c1ccccc1): 424 nm

Structure (SMILES): CN(C)c1ccc(C(=O)Nc2cccc(Br)c2)cc1
absorption maximum (in C1CCCCC1): 310 nm | absorption maximum (in C1CCOC1): 317 nm | absorption maximum (in CC#N): 318 nm | absorption maximum (in CCOCC): 312 nm

Structure (SMILES): CCCCCCCCc1ccc(-n2c3c(c4c2c2c(n4-c4ccc(CCCCCCCC)cc4)-c4ccccc4NB2c2ccccc2)B(c2ccccc2)Nc2ccccc2-3)cc1
absorption maximum (in Cc1ccccc1): 387 nm

Structure (SMILES): c1cnc(-c2c3ccccc3c(-c3ncccn3)c3ccccc23)nc1
absorption maximum (in CCO): 389 nm | absorption maximum (in ClCCl): 389 nm

Structure (SMILES): CC[n+]1c(-c2ccccc2)c2cc(N)ccc2c2ccc(NC(N)=O)cc21
absorption maximum (in O): 458 nm

Structure (SMILES): CC1(C)c2ccccc2N(c2ccc(-c3ncc(C#N)cn3)cc2)c2ccccc21
absorption maximum (in Cc1ccccc1): 396 nm

Structure (SMILES): OC1(c2ccc(-c3cccs3)s2)CCCCC1
absorption maximum (in C1CCOC1): 312 nm | absorption maximum (in CC#N): 309 nm | absorption maximum (in CCCCCC): 308 nm | absorption maximum (in CCO): 309 nm | absorption maximum (in OCCOCCO): 317 nm | absorption maximum (in c1ccncc1): 315 nm

Structure (SMILES): COc1ccc(C2=[N+]3C(=Nc4c(-c5cc(OC)c(OC)c(OC)c5Br)c(-c5ccc(C(C)(C)C)cc5)c(-c5ccc(OC)cc5)n4[B-]3(F)F)C(c3cc(OC)c(OC)c(OC)c3Br)=C2c2ccc(C(C)(C)C)cc2)cc1
absorption maximum (in Cc1ccccc1): 706 nm

Structure (SMILES): c1ccc(-n2c3ccccc3c3cc(-n4ccc5cc(-c6ccc(C7(c8ccccc8)c8ccccc8-c8ccccc87)cc6)ccc54)ccc32)cc1
absorption maximum (in ClCCl): 308 nm

Structure (SMILES): Fc1ccc(C#Cc2cc(C#Cc3ccc(F)cc3)c(C#Cc3ccc(F)cc3)c(C#Cc3ccc(F)cc3)c2C#Cc2ccc(F)cc2)cc1
absorption maximum (in ClCCl): 371 nm

Structure (SMILES): Nc1ccc(C#Cc2ccc3ccc4ccc(C#Cc5ccc(N)cc5)c5ccc2c3c45)cc1
absorption maximum (in C1COCCO1): 420 nm | absorption maximum (in CC(C)=O): 421 nm | absorption maximum (in CCCCCC): 421 nm | absorption maximum (in CCCCCCO): 421 nm | absorption maximum (in CCO): 419 nm | absorption maximum (in CCOC(C)=O): 419 nm | absorption maximum (in CO): 415 nm | absorption maximum (in Cc1ccccc1): 417 nm | absorption maximum (in ClCCl): 417 nm

Structure (SMILES): CN(C)c1ccc(C(=O)c2ccccc2)cc1
absorption maximum (in C1CCCCC1): 325 nm | absorption maximum (in CC#N): 345 nm | absorption maximum (in CO): 355 nm | absorption maximum (in CS(C)=O): 350 nm | absorption maximum (in c1ccccc1): 340 nm

Structure (SMILES): CC1=CC(C)=[N+]2C1=C(c1ccc(-c3c4ccccc4c(-c4ccccc4)c4ccccc34)cc1)c1c(C)cc(C)n1[B-]2(F)F
absorption maximum (in CC#N): 499 nm | absorption maximum (in CCCCCC): 502 nm | absorption maximum (in CCO): 500 nm | absorption maximum (in CN(C)C=O): 500 nm | absorption maximum (in Cc1ccccc1): 504 nm | absorption maximum (in ClCCl): 502 nm

Structure (SMILES): CCCCCCCCN1C(=O)c2ccc3c4c(-c5ccc(N(c6ccccc6)c6ccccc6)cc5)cc5c6c(ccc(c7c(-c8ccc(N(c9ccccc9)c9ccccc9)cc8)cc(c2c37)C1=O)c64)C(=O)N(CCCCCCCC)C5=O
absorption maximum (in ClC(Cl)Cl): 645 nm

Structure (SMILES): CC(C)(C)c1ccc(N2c3ccc(C(C)(C)C)cc3B3c4cc(C(C)(C)C)ccc4N(c4ccc(C(C)(C)C)cc4)c4cc(-n5c6ccc(C(C)(C)C)cc6c6cc(C(C)(C)C)ccc65)cc2c43)cc1
absorption maximum (in Cc1ccccc1): 451 nm

Structure (SMILES): COc1ccc(N(c2ccc(OC)cc2)c2ccc(-c3ccc4c(c3)C(=O)c3ccccc3C4=O)cc2)cc1
absorption maximum (in C1CCOC1): 477 nm | absorption maximum (in CCCCCC): 468 nm | absorption maximum (in CCOC(C)=O): 472 nm | absorption maximum (in CCOCC): 472 nm | absorption maximum (in Cc1ccccc1): 481 nm | absorption maximum (in ClC(Cl)(Cl)Cl): 483 nm | absorption maximum (in ClCCl): 485 nm

Structure (SMILES): COC(=O)C(Cc1ccc2oc(-c3ccc(N(c4ccccc4)c4ccccc4)cc3)nc2c1)NC(=O)OC(C)(C)C (configuration not stated)
absorption maximum (in C1CCCCC1): 361.7 nm | absorption maximum (in C1CCOC1): 362.85 nm | absorption maximum (in C1COCCO1): 363.1 nm | absorption maximum (in CC1CCCCC1): 361.35 nm | absorption maximum (in CC1COC(=O)O1): 361.45 nm | absorption maximum (in CC#N): 360.5 nm | absorption maximum (in CC(C)=O): 360.45 nm | absorption maximum (in CC(C)O): 365.45 nm | absorption maximum (in CC(O)CO): 368.35 nm | absorption maximum (in CCCCCC): 359.8 nm | absorption maximum (in CCCCCCCC): 361.55 nm | absorption maximum (in CCCCCO): 367.75 nm | absorption maximum (in CCCCO): 367.1 nm | absorption maximum (in CCO): 366.3 nm | absorption maximum (in CCOC(C)=O): 360.5 nm | absorption maximum (in CN(C)C=O): 363 nm | absorption maximum (in CO): 365.05 nm | absorption maximum (in COCCOC): 362.55 nm | absorption maximum (in CS(C)=O): 364 nm | absorption maximum (in ClC(Cl)Cl): 369.25 nm | absorption maximum (in ClCCl): 366.18 nm | absorption maximum (in N#Cc1ccccc1): 368.3 nm | absorption maximum (in NC=O): 367.45 nm | absorption maximum (in O): 367 nm | absorption maximum (in OCC(F)(F)F): 366.1 nm

Structure (SMILES): Cc1cc(=O)oc2c3c4c(cc12)CCCN4CCC3
absorption maximum (in C1CCCCC1): 361 nm | absorption maximum (in CC#N): 380 nm | absorption maximum (in CCO): 387 nm | absorption maximum (in O): 396 nm

From the Deep4Chem optical property database
